In one assay the test system is A549. Nature of the assay: Anticancer activity against human A549 cells after 48 hrs by MTT assay. Type of assay: functional, cell-based. The note with it: A549, 48 h.
Another assay relates to HepG2. The experiment in a line: Anticancer activity against human HepG2 cells after 48 hrs by MTT assay. Type of assay: functional, cell-based. To be noted: HepG2, 48 h.
Another assay deals with HeLa. The experiment in a line: Anticancer activity against human HeLa cells after 48 hrs by MTT assay. Type of assay: functional, cell-based.
The next assay deals with SiHa. Nature of the assay: Anticancer activity against human SiHa cells after 48 hrs by MTT assay. Type of assay: functional, cell-based.
A further assay concerns SW480. Nature of the assay: Anticancer activity against human SW480 cells after 48 hrs by MTT assay. Type of assay: functional, cell-based. To be noted: SW480, 48 h.
In another assay the test system is HEK293. Nature of the assay: Cytotoxicity against human HEK293 cells after 48 hrs by MTT assay. Type of assay: cell-based. To be noted: HEK293, 48 h.

With `CC(=O)O[C@H]1[C@@H](n2nnc3ccccc32)C[C@H]2[C@@H]3CC[C@H]4C[C@@H](N5CCOCC5)CC[C@]4(C)[C@H]3CC[C@@]21C`, the IC50 in the assay with A549 is 12.2 µM; with HepG2, over 50 µM; with HeLa, 19.8 µM; with SiHa, over 50 µM; with SW480, over 50 µM.

Consider `CC(=O)O[C@H]1[C@@H](n2cncn2)C[C@H]2[C@@H]3CC[C@H]4C[C@@H](N5CCOCC5)CC[C@]4(C)[C@H]3CC[C@@]21C`, for which the concentration for half-maximal inhibition (IC50) in the assay with A549 was over 50 µM; in the assay with HepG2, 19.5 µM; with HeLa, 22.3 µM; with SiHa it was over 50 µM; in the assay on SW480, over 50 µM.

For the compound `CC(=O)O[C@H]1[C@@H](n2cncn2)C[C@H]2[C@@H]3CC[C@H]4C[C@@H](N(C)c5ccccc5)CC[C@]4(C)[C@H]3CC[C@@]21C`, the IC50 in the assay on A549 is 12.3 µM; in the assay on HepG2, 21.9 µM; in the assay on HeLa it was 19.8 µM; in the assay with SiHa, 37.1 µM; with SW480 it was over 50 µM.

`CC(=O)O[C@H]1[C@@H](n2nnc3ccccc32)C[C@H]2[C@@H]3CC[C@H]4C[C@@H](N(C)c5ccccc5)CC[C@]4(C)[C@H]3CC[C@@]21C`: the IC50 with A549 was 5.12 µM; in the assay with HepG2 it was 6.36 µM; in the assay with HeLa it was 10.4 µM; in the assay on HEK293 it was over 80 µM; in the assay on SiHa, 9.83 µM; in the assay with SW480, 18.6 µM.

`CC(=O)O[C@H]1[C@@H](n2cnc3ccccc32)C[C@H]2[C@@H]3CC[C@H]4C[C@@H](N(C)c5ccccc5)CC[C@]4(C)[C@H]3CC[C@@]21C`: the IC50 was 28.4 µM in the assay with A549; over 50 µM in the assay with HepG2; 4.51 µM with HeLa; over 80 µM with HEK293; 6.67 µM in the assay on SiHa; 9.22 µM with SW480.

With `CC(=O)O[C@H]1[C@@H](n2nnc3ccccc32)C[C@H]2[C@@H]3CC[C@H]4C[C@@H](N5CCN(C)CC5)CC[C@]4(C)[C@H]3CC[C@@]21C`, the IC50 was 8.99 µM in the assay on A549; 31.7 µM with HepG2; over 50 µM in the assay with HeLa; 22 µM in the assay with SiHa; 18.9 µM in the assay with SW480.

Regarding `CCN(CC)[C@H]1CC[C@@]2(C)[C@@H](CC[C@@H]3[C@@H]2CC[C@@]2(C)[C@H]3C[C@H](n3cnc4ccccc43)[C@@H]2OC(C)=O)C1`, the concentration for half-maximal inhibition (IC50) with A549 was over 50 µM; in the assay on HepG2, 22.1 µM; in the assay with HeLa, over 50 µM; with SiHa it was 29.8 µM; with SW480, over 50 µM.

With `CC(=O)O[C@H]1[C@@H](n2ccnn2)C[C@H]2[C@@H]3CC[C@H]4C[C@@H](N5CCOCC5)CC[C@]4(C)[C@H]3CC[C@@]21C`, the IC50 with A549 was 40.3 µM; in the assay on HepG2, over 50 µM; in the assay on HeLa it was over 50 µM; in the assay on SiHa, 47.8 µM; with SW480, 31.8 µM.

On to `CC(=O)O[C@H]1[C@@H](n2nnc3ccccc32)C[C@H]2[C@@H]3CC[C@H]4C[C@@H](N5CCCC5)CC[C@]4(C)[C@H]3CC[C@@]21C`, for which the IC50 in the assay with A549, in the assay on HepG2, in the assay on HeLa, in the assay on SiHa and in the assay with SW480 was over 50 µM in each case.

For the compound `CC(=O)O[C@H]1[C@@H](n2cnc3ccccc32)C[C@H]2[C@@H]3CC[C@H]4C[C@@H](N5CCOCC5)CC[C@]4(C)[C@H]3CC[C@@]21C`, the IC50 with A549 was 16.1 µM; in the assay with HepG2 it was over 50 µM; in the assay with HeLa it was over 50 µM; with SiHa, 12.3 µM; with SW480, over 50 µM.

On to `CC(=O)O[C@H]1[C@@H](n2ccnn2)C[C@H]2[C@@H]3CC[C@H]4C[C@@H](N(C)c5ccccc5)CC[C@]4(C)[C@H]3CC[C@@]21C`, for which the IC50 is 18.9 µM in the assay on A549; 9.35 µM in the assay with HepG2; 72.1 µM with HeLa; 11.7 µM with SiHa; over 50 µM with SW480.

`CC(=O)O[C@H]1[C@@H](n2cnc3ccccc32)C[C@H]2[C@@H]3CC[C@H]4C[C@@H](N5CCCC5)CC[C@]4(C)[C@H]3CC[C@@]21C`: the IC50 is 39.6 µM with A549; over 50 µM in the assay with HepG2; over 50 µM in the assay with HeLa; 37.1 µM with SiHa; over 50 µM with SW480.

On to `CC(=O)O[C@H]1[C@@H](n2nnc3ccccc32)C[C@H]2[C@@H]3CC[C@H]4C[C@@H](N5CCCCC5)CC[C@]4(C)[C@H]3CC[C@@]21C`, for which the 50% inhibitory concentration (IC50) in the assay on A549 is 22.7 µM; in the assay with HepG2 it was over 50 µM; in the assay with HeLa it was 29.6 µM; in the assay with SiHa, over 50 µM; with SW480, over 50 µM.

Regarding `CC(=O)O[C@H]1[C@@H](n2ccnn2)C[C@H]2[C@@H]3CC[C@H]4C[C@@H](N(C)Cc5ccccc5)CC[C@]4(C)[C@H]3CC[C@@]21C`, the IC50 was 11.4 µM in the assay on A549; 8.43 µM in the assay on HepG2; over 50 µM with HeLa; 15.2 µM in the assay with SiHa; over 50 µM in the assay with SW480.

Regarding `CC(=O)O[C@H]1[C@@H](n2cncn2)C[C@H]2[C@@H]3CC[C@H]4C[C@@H](N5CCN(C)CC5)CC[C@]4(C)[C@H]3CC[C@@]21C`, the IC50 in the assay with A549 was 39.7 µM; with HepG2, 23.5 µM; in the assay with HeLa it was over 50 µM; in the assay on SiHa, over 50 µM; with SW480, over 50 µM.

Turning to `CC(=O)O[C@H]1[C@@H](n2cnc3ccccc32)C[C@H]2[C@@H]3CC[C@H]4C[C@@H](N5CCCCC5)CC[C@]4(C)[C@H]3CC[C@@]21C`, the IC50 with A549 was over 50 µM; with HepG2, 29.6 µM; with HeLa it was over 50 µM; with SiHa, 18.7 µM; in the assay with SW480 it was over 50 µM.

With `CCN(CC)[C@H]1CC[C@@]2(C)[C@@H](CC[C@@H]3[C@@H]2CC[C@@]2(C)[C@H]3C[C@H](n3cncn3)[C@@H]2OC(C)=O)C1`, the 50% inhibitory concentration (IC50) in the assay with A549, in the assay on HepG2, in the assay with HeLa, in the assay with SiHa and with SW480 was over 50 µM throughout.

For `CC(=O)O[C@H]1[C@@H](n2cncn2)C[C@H]2[C@@H]3CC[C@H]4C[C@@H](N5CCCCC5)CC[C@]4(C)[C@H]3CC[C@@]21C`, the IC50 with A549, in the assay with HepG2, in the assay with HeLa, in the assay with SiHa and in the assay on SW480 was over 50 µM in each case.

For `CC(=O)O[C@H]1[C@@H](n2ccnn2)C[C@H]2[C@@H]3CC[C@H]4C[C@@H](N5CCCCC5)CC[C@]4(C)[C@H]3CC[C@@]21C`, the IC50 in the assay on A549, with HepG2, in the assay with HeLa, with SiHa and in the assay on SW480 was over 50 µM each time.

Take `CC(=O)O[C@H]1[C@@H](n2ccnn2)C[C@H]2[C@@H]3CC[C@H]4C[C@@H](N5CCCC5)CC[C@]4(C)[C@H]3CC[C@@]21C`: the IC50 with A549, in the assay on HepG2, in the assay on HeLa, with SiHa and in the assay with SW480 was over 50 µM each time.

Regarding `CCN(CC)[C@H]1CC[C@@]2(C)[C@@H](CC[C@@H]3[C@@H]2CC[C@@]2(C)[C@H]3C[C@H](n3ccnn3)[C@@H]2OC(C)=O)C1`, the IC50 in the assay on A549, in the assay with HepG2, in the assay with HeLa, in the assay with SiHa and in the assay on SW480 was over 50 µM each time.

With `CC(=O)O[C@H]1[C@@H](n2cncn2)C[C@H]2[C@@H]3CC[C@H]4C[C@@H](N5CCCC5)CC[C@]4(C)[C@H]3CC[C@@]21C`, the IC50 in the assay on A549, with HepG2, in the assay on HeLa, in the assay with SiHa and with SW480 was over 50 µM throughout.

Turning to `CC(=O)O[C@H]1[C@@H](n2cnc3ccccc32)C[C@H]2[C@@H]3CC[C@H]4C[C@@H](N5CCN(C)CC5)CC[C@]4(C)[C@H]3CC[C@@]21C`, the IC50 was 22.4 µM in the assay on A549; 11.7 µM in the assay on HepG2; over 50 µM in the assay on HeLa; 14.9 µM with SiHa; over 50 µM in the assay on SW480.

With `COc1cccc2c1C(=O)c1c(O)c3c(c(O)c1C2=O)C[C@@](O)(C(=O)CO)C[C@@H]3O[C@H]1C[C@H](N)[C@H](O)[C@H](C)O1` [DOXORUBICIN], the IC50 with HeLa worked out at 0.23 µM; in the assay with SiHa, 0.45 µM; with SW480 it was 0.06 µM.

For `CC(=O)O[C@H]1[C@@H](n2cncn2)C[C@H]2[C@@H]3CC[C@H]4C[C@@H](N(C)Cc5ccccc5)CC[C@]4(C)[C@H]3CC[C@@]21C`, the IC50 is over 50 µM in the assay with A549; 10.6 µM in the assay on HepG2; 18.7 µM in the assay on HeLa; 22.4 µM in the assay with SiHa; over 50 µM in the assay with SW480.

`CC(=O)O[C@H]1[C@@H](n2ccnn2)C[C@H]2[C@@H]3CC[C@H]4C[C@@H](N5CCN(C)CC5)CC[C@]4(C)[C@H]3CC[C@@]21C`: the IC50 in the assay with A549 is over 50 µM; in the assay with HepG2 it was over 50 µM; with HeLa, 38.1 µM; in the assay with SiHa, over 50 µM; with SW480 it was over 50 µM.

Regarding `CCN(CC)[C@H]1CC[C@@]2(C)[C@@H](CC[C@@H]3[C@@H]2CC[C@@]2(C)[C@H]3C[C@H](n3nnc4ccccc43)[C@@H]2OC(C)=O)C1`, the IC50 in the assay on A549 was over 50 µM; with HepG2, over 50 µM; with HeLa, over 50 µM; in the assay on SiHa it was 37.2 µM; with SW480, over 50 µM.
